# Measured values as given in US20240058417A1, “AMELIORATION AND TREATMENT OF INFARCTION DAMAGE” (priority 2021, published 2024).
# How the values were obtained:
# [1] = system: myocardial I/R injury; assay: in vivo murine myocardial I/R: infarct size, troponin, apoptosis, cardiac function; set-up: species or system mouse; settings: wild-type mice
# [2] = target: recombinant BNIP3 (Mus musculus, UniProt O55003); assay: BNIP3/peptide microarray (truncation and substitution analysis); assay type: binding; settings: FIG. 3H
# recombinant BNIP3, sequence (O55003 whole entry, the tested form may be a part): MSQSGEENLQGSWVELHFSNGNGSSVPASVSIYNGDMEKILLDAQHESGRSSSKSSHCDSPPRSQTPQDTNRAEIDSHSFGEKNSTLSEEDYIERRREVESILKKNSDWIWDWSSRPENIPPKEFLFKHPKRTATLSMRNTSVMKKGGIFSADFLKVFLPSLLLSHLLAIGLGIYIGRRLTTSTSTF
# [3] = system: DOX-induced cardiotoxicity; assay: DOX treatment in vivo (cardiotoxicity, 42 days)
# [4] = system: human cardiomyocytes; assay: DOX-induced cell death and mitochondrial damage in human cardiomyocytes (HCM); settings: 10 μM DOX
# [5] = system: BNIP3/BAX; assay: in vivo murine myocardial I/R: necrotic and apoptotic signaling in the area at risk; set-up: species or system mouse; settings: AAR
# [6] = target: T1, Recombinant Mouse BCL2/adenovirus E1B 19 kDa protein interacting protein 3 (Bnip3) (mouse, UniProt O55003 1-187, labelled with DyLight 650 (Dy650) where used as the soluble probe); assay: BNIP3/peptide microarray, labelled rBNIP3 on immobilised truncation peptides
# T1 construct: Bought recombinant protein; also called rBNIP3; recombinant BNIP3
# T1 sequence (O55003 whole entry, the tested form may be a part): as above
# [7] = target: T1, Recombinant Mouse BCL2/adenovirus E1B …; assay: N-terminal sequence truncation analysis, peptide microarray with rBNIP3
molecule,measurement,setting,value
"GRKKRRQRRRPQLDAQHESGRSSSKSSHCDSP [TAT-BNIP3-20C, control peptide, HIV-1 PTD attached to BNIP3 amino acids 42-61]",infarct size compared with vehicle treatment,"[1]; 5 minutes before reperfusion, 24 h reperfusion",no difference was observed
VELHFSN,luminescence in N-terminal truncation analysis,[2],substantially higher luminescence
"COc1cccc2c1C(=O)c1c(O)c3c(c(O)c1C2=O)C[C@@](O)(C(=O)CO)C[C@@H]3O[C@H]1C[C@H](N)[C@H](O)[C@H](C)O1 [DOX, Doxorubicin]",heart rate,[3]; DOX alone or in combination with PepB,unaffected
same,CQ mediated LC3II/I increase (autophagic flux),[3]; additional chloroquine treatment,abolished
same,basal respiration,"[3]; cardiac mitochondria, Seahorse",affected
same,maximal respiration,"[3]; cardiac mitochondria, Seahorse",affected
same,respiratory reserve capacity (OCR),"[3]; cardiac mitochondria, Seahorse",inhibited
same,BNIP3 accumulation,"[3]; mouse, in vivo",triggered
same,cardiomyocyte death (cardiac troponin I levels),"[3]; mouse, in vivo",dramatic positive effect
same,p62 accumulation,"[3]; mouse, in vivo",triggered
same,mPTP opening,[4],activated
same,mitochondrial ROS generation,[4]; four and 22 hours,triggered
same,mitochondrial membrane potential,[4]; four and 22 hours,disrupted
same,mitochondrial calcium ion overload,[4]; four hours,induced
"GRKKRRQRRRPQMSQSGEENLQGSWVELHFSN [TAT-BNIP3-20A, HIV-1 PTD attached to 20 amino acids derived from BNIP3 1-20]",reduction in infarct size relative to vehicle,"[1]; peptide 5 minutes before reperfusion, 30 min ischemia/24 h reperfusion",41%
same,caspase-3 activity,[5],markedly reduced
same,BNIP3 translocation to the mitochondria,"[5]; wild-type mice, 10 minutes reperfusion",prevented
WVELHFSN (Immobilised on peptide microarrays (JPT); also called truncated peptide) [WVELHFSN (BNIP3 amino acid residues 13-20)],fold signal increase compared to the 20 residues of BNIP3-20A peptide,[6],14 fold
VELHFSN (N-terminal truncation of BNIP3 1-20 on the peptide microarray),binding result,[7],binds
